Laboratory results: ChEMBL document CHEMBL3352123, “Structure activity relationship study of curcumin analogues toward the amyloid-beta aggregation inhibitor” (Bioorg Med Chem Lett, 2014)
Converted amounts (≈) assume the structure as drawn.

Columns and labels:
[1] = Aqueous solubility of the compound after 12 hrs by shake-flask method; assay type: physicochemical; settings: buffer
[2] = molecular target: Amyloid-beta precursor protein (Homo sapiens) (UniProt P05067); assay: Inhibition of amyloid beta-42 self-aggregation (unknown origin) at 25 uM after 20 hrs by ThT fluorescence assay
Amyloid-beta precursor protein (Homo sapiens), sequence (P05067 whole entry): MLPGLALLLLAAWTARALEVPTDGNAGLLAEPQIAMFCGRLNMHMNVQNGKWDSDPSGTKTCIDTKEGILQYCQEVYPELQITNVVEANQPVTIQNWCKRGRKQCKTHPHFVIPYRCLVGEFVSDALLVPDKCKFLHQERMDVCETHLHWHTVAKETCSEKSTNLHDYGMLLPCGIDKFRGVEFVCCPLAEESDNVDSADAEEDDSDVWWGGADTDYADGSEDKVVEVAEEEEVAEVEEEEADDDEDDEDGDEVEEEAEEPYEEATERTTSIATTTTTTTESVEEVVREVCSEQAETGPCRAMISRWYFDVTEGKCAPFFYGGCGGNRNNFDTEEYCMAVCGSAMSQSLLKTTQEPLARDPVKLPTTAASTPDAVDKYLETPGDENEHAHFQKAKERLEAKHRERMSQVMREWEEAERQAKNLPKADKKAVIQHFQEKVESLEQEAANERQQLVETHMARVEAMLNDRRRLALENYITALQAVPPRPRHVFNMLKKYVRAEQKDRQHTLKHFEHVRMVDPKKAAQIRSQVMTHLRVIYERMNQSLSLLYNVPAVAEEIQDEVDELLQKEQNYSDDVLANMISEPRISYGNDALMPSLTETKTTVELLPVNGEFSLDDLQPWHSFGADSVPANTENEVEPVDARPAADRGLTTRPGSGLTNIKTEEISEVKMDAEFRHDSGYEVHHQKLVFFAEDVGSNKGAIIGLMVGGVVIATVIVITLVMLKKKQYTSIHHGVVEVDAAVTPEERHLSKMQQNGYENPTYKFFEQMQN

SMILES | solubility thermodynamic at 12 h [1] [µM] | inhibition [2] [%]
COc1ccccc1/C=C/C(=O)CC(=O)/C=C/c1ccc(O)c(O)c1 | 0.12 (≈ 0.0406 µg/mL) | 100
Oc1ccc(/C=C/c2cc(/C=C/c3ccccc3O)[nH]n2)cc1O | 16 (≈ 5.13 µg/mL) | 47
O=C(/C=C/c1ccc(O)c(O)c1)CC(=O)/C=C/c1ccc(O)c(O)c1 [DIDEMETHYLCURCUMIN] | 2.4 (≈ 0.817 µg/mL) | 99
COc1cccc(/C=C/C(=O)CC(=O)/C=C/c2ccc(O)c(O)c2)c1 | 0.11 (≈ 0.0372 µg/mL) | 95
O=C(/C=C/c1ccc(O)cc1)CC(=O)/C=C/c1ccc(O)c(O)c1 | 0.66 (≈ 0.214 µg/mL) | 89
O=C(/C=C/c1cc(O)c(O)c(O)c1)CC(=O)/C=C/c1cc(O)c(O)c(O)c1 | 6.2 (≈ 2.31 µg/mL) | 46
O=C(/C=C/c1cccc(O)c1)CC(=O)/C=C/c1ccc(O)c(O)c1 | 6.2 (≈ 2.01 µg/mL) | 99
COc1cc(/C=C/c2cc(/C=C/c3ccc(O)c(OC)c3)[nH]n2)ccc1O [CURCUMIN PYRAZOLE] | 1.2 (≈ 0.437 µg/mL) | 51
N#Cc1cccc(/C=C/C(=O)CC(=O)/C=C/c2ccc(O)c(O)c2)c1 | – | 96
O=C(/C=C/c1ccccc1O)CC(=O)/C=C/c1ccccc1O | – | 80
Oc1ccc(/C=C/c2cc(/C=C/c3ccc(O)c(O)c3)[nH]n2)cc1O | 98 (≈ 33 µg/mL) | 90
COc1cc(/C=C/C(=O)CC(=O)/C=C/c2ccc(O)c(OC)c2)ccc1O [CURCUMIN] | 0.19 (≈ 0.07 µg/mL) | 80
Oc1cccc(/C=C/c2cc(/C=C/c3ccc(O)c(O)c3)n[nH]2)c1 | 10 (≈ 3.2 µg/mL) | –
COc1ccc(/C=C/C(=O)CC(=O)/C=C/c2ccc(O)c(O)c2)cc1 | 0.009 (≈ 0.00305 µg/mL) | 95
O=C(/C=C/c1ccc(O)cc1)CC(=O)/C=C/c1ccc(O)cc1 | – | 75
O=C(/C=C/c1cccc(O)c1)CC(=O)/C=C/c1cccc(O)c1 | – | 79
COc1ccc(/C=C/C(=O)/C=C(O)/C=C/c2ccc(OC)c(OC)c2)cc1OC | – | 0
COc1c(O)cc(/C=C/C(=O)CC(=O)/C=C/c2ccc(O)c(O)c2)cc1O | 5.4 (≈ 2 µg/mL) | 100
COc1cc(/C=C/C(=O)CC(=O)/C=C/c2ccc(O)c(O)c2)cc(OC)c1OC | – | 95
O=C(/C=C/c1ccc(O)c(O)c1)CC(=O)/C=C/c1cc(O)c(O)c(O)c1 | 50 (≈ 17.8 µg/mL) | 100
COc1cc(/C=C/C(=O)C(C)(C)C(=O)/C=C/c2ccc(O)c(OC)c2)ccc1O | 12 (≈ 4.76 µg/mL) | 30
O=C(/C=C/c1cc(O)c(O)c(O)c1)CC(=O)/C=C/c1ccccc1O | 47 (≈ 16 µg/mL) | 73
O=C(/C=C/c1ccc(O)c(O)c1)CC(=O)/C=C/c1ccccc1O | 31 (≈ 10.1 µg/mL) | 100
O=C(/C=C/c1cccc([N+](=O)[O-])c1)CC(=O)/C=C/c1ccc(O)c(O)c1 | – | 97
